12 compounds from patent EP0434360A1, “New benziodiazepine analogs” (MERCK & CO. INC., priority 1989, dated 1991) can be followed below.

As usually defined, the IC50 is the concentration at which inhibition is half-maximal.

Assay [1] concerns the target T1, CCK receptor (pancreas) (Rattus norvegicus, UniProt P30551).
T1 construct: The whole pancreas was dissected free of fat tissue and was homogenized; from tissue; host or cells: rat whole pancreas membrane homogenate
T1 sequence (P30551 1-444): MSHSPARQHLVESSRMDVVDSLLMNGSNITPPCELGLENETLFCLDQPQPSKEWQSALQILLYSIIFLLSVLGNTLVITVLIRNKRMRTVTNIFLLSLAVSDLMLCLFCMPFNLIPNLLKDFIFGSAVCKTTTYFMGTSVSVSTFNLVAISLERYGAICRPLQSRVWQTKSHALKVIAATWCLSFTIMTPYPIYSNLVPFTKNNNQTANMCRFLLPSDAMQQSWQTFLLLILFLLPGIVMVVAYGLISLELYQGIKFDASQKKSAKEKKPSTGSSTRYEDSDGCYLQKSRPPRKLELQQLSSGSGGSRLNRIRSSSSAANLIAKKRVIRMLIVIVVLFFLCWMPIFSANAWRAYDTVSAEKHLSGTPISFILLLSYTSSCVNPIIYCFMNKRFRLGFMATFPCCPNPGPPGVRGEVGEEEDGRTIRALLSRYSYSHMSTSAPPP
Kind of assay: CCK Receptor Binding (Pancreas), inhibition of 125I-CCK-33 binding. The method, then:
1. CCK Receptor Binding (Pancreas)
CCK-33 was radiolabeled with ^1251-Bolton Hunter reagent (2000 Cilmmole) as described by Sankara et al. (J. Biol. Chem. 254: 9349-9351, 1979). Receptor binding was performed according to Innis and Snyder (Proc. Natl. Acad. Sci. 77 6917-6921, 1980) with the minor modification of adding the additional protease inhibitors, phenyl-methane sulfonyl fluoride and o-phenanthroline.
Male Sprague-Dawley rats (200-350 g) were sacrificed by decapitation. The whole pancreas was dissected free of fat tissue and was homogenized in 20 volumes of ice-cold 50 mM, Tris HCI (pH 7.7 at 25°C) with a Brink- mann Polytron PT 10. The homogenates were centrifuged at 48,000 g for 10 min. Pellets were resuspended in Tris Buffer, centrifuged as above and resuspended in 200 volumes of binding assay buffer (50 mM Tris HCI, pH 7.7 at 25°C, 5 mM dithiothrietol, 0.1 mM bacitracin, 1.2 mM phenyl-methane sulfonyl fluoride and 0.5 mM o-phenanthroline). […] All assays were run in duplicate or triplicate. The reaction mixtures were incubated at 37°C for30 minutes and centrifuged in a Beckman Microfuge (4 minutes) immediately after adding 1 ml of ice-cold incubation buffer. The supernatant was aspirated and discarded, pellets were counted with a Beckman gamma 5000. For Scatchard analysis (Ann. N.Y. Acad. Sci. 51 : 660, 1949), ^125I-CCK-33 was progressively diluted with increasing concentrations of CCK-33.

The target in assay [2] is T2, CCK receptor (brain, cerebral cortex) (Cavia porcellus, UniProt H0VZC5).
T2 construct: Cerebral cortex was dissected and used as a receptor source; from tissue; host or cells: guinea pig cerebral cortex membrane homogenate
T2 sequence (H0VZC5 1-426): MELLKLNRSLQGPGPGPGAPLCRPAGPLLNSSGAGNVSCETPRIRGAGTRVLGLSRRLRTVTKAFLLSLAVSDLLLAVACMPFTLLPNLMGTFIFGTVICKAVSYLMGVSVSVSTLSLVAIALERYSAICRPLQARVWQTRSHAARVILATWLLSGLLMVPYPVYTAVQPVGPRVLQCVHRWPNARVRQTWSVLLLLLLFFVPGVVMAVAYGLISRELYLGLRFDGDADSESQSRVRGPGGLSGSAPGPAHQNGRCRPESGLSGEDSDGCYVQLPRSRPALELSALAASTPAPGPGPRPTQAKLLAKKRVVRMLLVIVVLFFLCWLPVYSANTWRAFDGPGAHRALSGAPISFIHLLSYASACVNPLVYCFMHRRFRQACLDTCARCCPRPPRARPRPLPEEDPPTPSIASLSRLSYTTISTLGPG
Kind of assay: CCK Receptor Binding (Brain), inhibition of 125I-CCK-33 binding. Details: species or system guinea pig. The method, then:
2. CCK Receptor Binding (Brain)
CCK-33 was radiolabeled and the binding was performed according to the description for the pancreas method with modifications according to Saito et al., J. Neurochem. 37: 483-490, 1981.
Male Hartley guinea pigs (300-500 g) were sacrificed by decapitation and the brains were removed and placed in ice-cold 50 mM, Tris HCI plus 7.58 g/l Trizma-7.4 (pH 7.4 at 25°C). Cerebral cortex was dissected and used as a receptor source. Each gram of fresh guinea pig brain tissue was homogenized in 10 ml of Tris/Trizma buffer with a Brinkman polytron PT-10. The homogenates were centrifuged at 42,000 g for 15 minutes. Pellets were resuspended in Tris Buffer, centrifuged as above and resuspended in 200 volumes of binding assay buffer (10 mM N-2-hydroxyethyl-piperazine-N'-2-ethane sulfonic acid (HEPES), 5 mM MgCl2, 0.25 mg/ml bacitracin, 1 mM ethylene glycol-bis-(β-aminoethylether-N,N'-tetraacetic acid) (EGTA), and 0.4% bovine serum albumin (BSA)). […] All assays were run in duplicate or triplicate. The reaction mixtures were incubated at 25°C for 2 hours and centrifuged in a Beckman Microfuge (4 minutes) immediately after adding 1 ml of ice-cold incubation buffer. The supernatant was aspirated and discarded, pellets were counted with a Beckman gamma 5000.

In assay [3] the target is T3, gastrin receptor (gastric glands) (Cavia porcellus, UniProt H0VZC5).
T3 construct: The washed guinea pig gastric glands prepared as above were resuspended in 25 ml of standard buffer; from tissue; host or cells: isolated guinea pig gastric mucosal glands (collagenase-dispersed)
T3 sequence (H0VZC5 1-426): T2 sequence (H0VZC5 1-426)
Kind of assay: Gastrin Receptor Binding in Guinea Pig Gastric Glands.

Where [4] appears, read: guinea pig gastric mucosal glands, 125I-gastrin, 25°C 30 minutes, read-out: IC50(µM) ^125I-Gastrin Gastric Glands.
[5] abbreviates: guinea pig cerebral cortex membranes, 125I-CCK-33, 25°C 2 hours, read-out: IC50(µM) ^125I-CCK Brain.
The mark [6] stands for this setting: rat pancreas membranes, 125I-CCK-33, 37°C 30 minutes, read-out: IC50(µM) ^125I-CCK Pancreas.

Where two headings read alike, the source gives them in different places.

For the compound `CN1C(=O)C(NC(=O)Nc2cc3c(cn2)[nH]c2ccccc23)N=C(c2ccccc2)c2ccccc21` (racemic) [Example 13, (RS)-N-(2,3-Dihydro-1-methyl-2-oxo-5-phenyl-1H-1,4-benzodiazepin-3-yl)-N'-9H-pyrido(3,4-b)indol-3-yl-urea], the IC50 in assay [1] was determined as 0.014 µM; in assay [2] it was 0.071 µM; in assay [3] (setting [4]) it was 6.4 µM.

As to `CN1C(=O)[C@@H](NC(=O)c2cc3ccccc3n2CCCC(=O)O)N=C(c2ccccc2)c2ccccc21` [Example 7, (S)-4-[-2-(((2,3-Dihydro-1-methyl-2-oxo-5-phenyl-1H-1,4-benzodiazepin-3-yl)amino)carbonyl)-1H-indolyl-1]-bu tanoic acid], the IC50 in assay [1] was 0.0001 µM; in assay [2] (setting [5]), 0.23 µM; in assay [3] (setting [4]), 0.24 µM.

Take `CN1C(=O)[C@H](NC(=O)Nc2cccc(C(=O)O)c2)N=C(c2ccccc2)c2ccccc21` [Example 10, (R)-3-((((2,3-Dihydro-l-methyl-2-oxo-5-phenyl-1H-1,4-benzodiazepin-3-yl)amino)carbonyl)amino)benzoic a cid]: the IC50 in assay [1] (setting [6]) is 0.049 µM; in assay [2], 0.0039 µM; in assay [3], 0.009 µM.

In the case of `CN1C(=O)[C@@H](NC(=O)c2cc3ccccc3n2CC(=O)O)N=C(c2ccccc2)c2ccccc21` [Example 6, 3(S)-3-(2-(N-carboxymethylindole)carbonylamino)-1,3-dihydro-1-methyl-5-phenyl-2H-1,4-benzodiazepin-2-one], the results for the IC50 in assay [1], in assay [2] (setting [5]) and in assay [3] (setting [4]) were 0.00013 µM, 0.129 µM and 0.07 µM, respectively.

With `CCOC(=O)c1cccc(NC(=O)N[C@@H]2N=C(c3ccccc3)c3ccccc3N(C)C2=O)c1` [Example 19, (R)-3-((((2,3-Dihydro-1-methyl-2-oxo-5-phenyl-1H-1,4-benzodiazepin-3-yl)amino)carbonyl)amino)benzoic acid ethyl ester], the IC50 worked out at 0.02 µM in assay [1], 0.026 µM in assay [2] (setting [5]) and 0.018 µM in assay [3] (setting [4]).

On to `Cc1cccc(NC(=O)NC2N=C(c3ccccc3)c3ccccc3N(CCO)C2=O)c1` (stereo not shown) [Example 17, N-(2,3-Dihydro-1-(2-hydroxyethyl)-2-oxo-5-phenyl-1 H-1,4-benzodiazepin-3-yl)-N'-(3-methylphenyl)-urea], for which the IC50 is 0.069 µM in assay [1], 0.012 µM in assay [2] and 0.0038 µM in assay [3].

As for `COc1cccc(NC(=O)NC2N=C(c3ccccc3)c3ccccc3N(CCN(C)C)C2=O)c1` (stereo not shown) [Example 18, N-(2,3-Dihydro-1-(2-dimethylaminoethyl)-2-oxo-5-phenyl-1H-1,4-benzodiazepin-3-yl) -N'-(3-methoxyphenyl)-urea], the figures for the IC50 in assay [1], in assay [2] and in assay [3] were 2.6 µM, 0.024 µM and 0.01 µM, respectively.

For the compound `O=C(NC1N=C(c2ccccc2)c2ccccc2N(CCO)C1=O)c1cc2ccccc2[nH]1` (racemic) [Example 12, (RS)-N-(2,3-Dihydro-1-(2-hydroxyethyl)-2-oxo-5-phenyl-1 H-1,4-benzodiazepin-3-yl)-1 H-indole-2-carboxamide], the IC50 in assay [1] came to 0.0024 µM; in assay [2] (setting [5]) it was 0.16 µM; in assay [3] (setting [4]), 0.24 µM.

As for `Cc1cccc(NC(=O)N[C@@H]2N=C(c3ccccc3)c3ccccc3N(C)C2=O)c1` [Example 5, (R)-N-(2,3-Dihydro-1-methyl-2-oxo-5-phenyl-1 H-1,4-benzodiazepin-3-yl)-N'-(3-methylphenyl)-urea], the IC50 turned out to be 0.002 µM in assay [2] and 0.0011 µM in assay [3].

In the case of `CN1C(=O)C(NC(=O)Nc2cccc(C(=O)O)c2)N=C(c2ccccc2)c2ccccc21` (racemic) [Example 9, (RS)-3-((((2,3-Dihydro-1-methyl-2-oxo-5-phenyl-1 H-1,4-benzodiazepin-3-yl)amino)carbonyl)amino)benzoic acid], the figures for the IC50 in assay [1], in assay [2] and in assay [3] were 0.049 µM, 0.0039 µM and 0.009 µM, respectively.

For the compound `CN1C(=O)C(NC(=O)Nc2ccc(N)nc2)N=C(c2ccccc2)c2ccccc21` (racemic) [Example 14, (RS)-N-(6-Amino-3-pyridyl)-N'-(2,3-dihydro-l-methyl-2-oxo-5-phenyl-1H-1,4-benzodiazepin-3-yl)-urea], the figures for the IC50 in assay [1] (setting [6]), in assay [2] and in assay [3] were 2.7 µM, 0.011 µM and 0.4 µM, respectively.

Turning to `CN1C(=O)C(NC(=O)c2cc3cc(OCC(=O)O)ccc3[nH]2)N=C(c2ccccc2)c2ccccc21` (stereo not shown) [Example 16, 1,3-Dihydro-3-(5-carboxymethyloxyindole-2-carbonylamino)-1-methyl-5-phenyl-2H-1,4-benzodiazepin 2-one], the IC50 in assay [1] came out at 0.023 µM; in assay [2] (setting [5]) it was 0.16 µM.
